From PubChem BioAssay (NCI)
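1) Cells in 96-well plates. 2) Compound, 48 h, 5 concentrations. 3) Linear interpolation between surrounding doses. 4) Unreached endpoint = highest concentration. Here, GI50 denotes the concentration required for 50% inhibition of growth. TGI: concentration producing complete growth inhibition.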 Where a SMILES comes first, the peptide text is derived from it. The star is where a group is joined. Palmitoyl = CCCCCCCCCCCCCCCC(=O)*

Experiments:
Test in all cases: NCI tumour cell line growth inhibition, 48 h
SK-MEL-5 melanoma = system: SK-MEL-5 melanoma
NCI/ADR-RES ovarian = system: NCI/ADR-RES ovarian
OVCAR-4 ovarian = system: OVCAR-4 ovarian
K-562 leukemia = system: K-562 leukemia
UO-31 renal = system: UO-31 renal
MALME-3M melanoma = system: MALME-3M melanoma
KM12 colon = system: KM12 colon
M14 melanoma = system: M14 melanoma
SR leukemia = system: SR leukemia
HS 578T breast = system: HS 578T breast

Cn1c(-c2ccccc2)cc(-c2cccs2)c1-c1cccs1
TGI (SK-MEL-5 melanoma): > 100 µM | TGI (NCI/ADR-RES ovarian): > 100 µM | TGI (OVCAR-4 ovarian): > 100 µM | TGI (K-562 leukemia): > 100 µM | TGI (UO-31 renal): > 100 µM | TGI (MALME-3M melanoma): > 100 µM | TGI (KM12 colon): > 44.9 µM

C/C(=N/N=C(\[O-])c1ccncc1)C(F)(F)F.C/C(=N\N=C(/[O-])c1ccncc1)C(F)(F)F.[Ni+2]
GI50 (NCI/ADR-RES ovarian): > 1 µM | TGI (NCI/ADR-RES ovarian): > 1 µM | GI50 (K-562 leukemia): > 1 µM | TGI (K-562 leukemia): > 1 µM | GI50 (MALME-3M melanoma): > 1 µM | TGI (MALME-3M melanoma): > 1 µM | GI50 (KM12 colon): > 1 µM | TGI (KM12 colon): > 1 µM

CC(N)Cc1ccc(Cl)c(Cl)c1 (stereo unspecified)
TGI (SK-MEL-5 melanoma): 31 µM | TGI (OVCAR-4 ovarian): > 100 µM | TGI (M14 melanoma): 33.9 µM | TGI (K-562 leukemia): 44 µM | TGI (UO-31 renal): 66.3 µM | TGI (MALME-3M melanoma): 35.5 µM | TGI (SR leukemia): 48.1 µM | TGI (KM12 colon): > 100 µM

Nc1[nH]c(=O)nc2c1cnn2C1CCCCO1 (stereo unspecified)
TGI (SK-MEL-5 melanoma): > 100 µM | TGI (OVCAR-4 ovarian): > 100 µM | TGI (M14 melanoma): > 100 µM | TGI (K-562 leukemia): > 100 µM | TGI (UO-31 renal): > 100 µM | TGI (MALME-3M melanoma): > 100 µM | TGI (SR leukemia): > 100 µM | TGI (KM12 colon): > 100 µM

CON(C)c1nc(N(C)OC)nc(N(C)OC)n1
TGI (SK-MEL-5 melanoma): > 10 µM | TGI (NCI/ADR-RES ovarian): > 10 µM | TGI (OVCAR-4 ovarian): > 10 µM | TGI (M14 melanoma): > 10 µM | TGI (K-562 leukemia): > 10 µM | TGI (UO-31 renal): > 10 µM | TGI (HS 578T breast): > 10 µM | TGI (MALME-3M melanoma): > 10 µM | TGI (SR leukemia): > 10 µM | TGI (KM12 colon): > 10 µM

Cc1cc(C)nc(NS(=O)(=O)c2ccc(NC(=O)c3cccc4c(Nc5ccc(S(=O)(=O)Nc6cc(C)on6)cc5)c5ccccc5nc34)cc2)n1
TGI (OVCAR-4 ovarian): 50.2 µM | TGI (M14 melanoma): 47.5 µM | TGI (K-562 leukemia): 80.6 µM | TGI (UO-31 renal): > 100 µM | TGI (MALME-3M melanoma): 44.7 µM | TGI (SR leukemia): 80.3 µM | TGI (KM12 colon): 30.4 µM

CCN1CCC(O)(/C=C/c2ccccc2C)C(C(=O)/C=C/c2ccccc2C)C1 (stereo unspecified)
TGI (SK-MEL-5 melanoma): 2.9 µM | TGI (NCI/ADR-RES ovarian): 12.7 µM | TGI (OVCAR-4 ovarian): 12.5 µM | TGI (M14 melanoma): 4.45 µM | TGI (K-562 leukemia): > 100 µM | TGI (UO-31 renal): 3 µM | TGI (HS 578T breast): 16.2 µM | TGI (MALME-3M melanoma): 16.3 µM | TGI (SR leukemia): > 100 µM

CCCCCCCCCCCCCCCC(=O)N1CCCC1C(=O)NCC(=O)NC(Cc1ccccc1)C(=O)NC(C)C(=O)NC(CO)C(=O)NC(Cc1ccc(O)cc1)C(=O)NC(CCCCN)C(=O)NC(CC(C)C)C(=O)NC(CCCN=C(N)N)C(=O)N1CCCC1C(=O)NCC(N)=O (stereo unspecified) (Palmitoyl-PGFASYKLRPG-NH2; configuration not given here)
GI50 (SK-MEL-5 melanoma): 33.4 µM | TGI (SK-MEL-5 melanoma): > 100 µM | GI50 (NCI/ADR-RES ovarian): 16.2 µM | TGI (NCI/ADR-RES ovarian): 35 µM | GI50 (OVCAR-4 ovarian): 33.8 µM | TGI (OVCAR-4 ovarian): 92.6 µM | GI50 (M14 melanoma): 16.8 µM | TGI (M14 melanoma): 35.3 µM | GI50 (K-562 leukemia): 18.3 µM | TGI (K-562 leukemia): 32.2 µM | GI50 (UO-31 renal): 21.9 µM | TGI (UO-31 renal): 52.1 µM | GI50 (HS 578T breast): 39.7 µM | TGI (HS 578T breast): > 100 µM | GI50 (MALME-3M melanoma): 18 µM | TGI (MALME-3M melanoma): 47.3 µM | GI50 (SR leukemia): 12 µM | TGI (SR leukemia): 24.5 µM | GI50 (KM12 colon): 21.9 µM | TGI (KM12 colon): 51.4 µM

CC1=C(O)C2=C(C(=O)C1=O)[C@@H](C)CC[C@@H]2[C@@H](C)C/C=C/C(C)(C)O
TGI (SK-MEL-5 melanoma): > 100 µM | TGI (NCI/ADR-RES ovarian): > 100 µM | TGI (M14 melanoma): > 100 µM | TGI (K-562 leukemia): > 100 µM | TGI (UO-31 renal): > 100 µM | TGI (HS 578T breast): > 100 µM | TGI (SR leukemia): 80.4 µM | TGI (KM12 colon): > 100 µM

C=C(C)C1Cc2c(c3ccccc3n(C)c2=O)O1 (stereo unspecified)
TGI (SK-MEL-5 melanoma): > 100 µM | TGI (M14 melanoma): > 100 µM | TGI (K-562 leukemia): > 100 µM | TGI (UO-31 renal): > 100 µM | TGI (MALME-3M melanoma): > 100 µM

COC(=O)C1=C(OC(=O)/C(=C/c2ccc(Cl)cc2)c2ccc(Cl)cc2)C(C(=O)OC)[C@]2(O)[C@@H](C(=O)OC)[C@H]1C[C@@H](c1ccccc1)[C@@H]2C(=O)OC (stereo partly specified)
TGI (SK-MEL-5 melanoma): > 100 µM | TGI (NCI/ADR-RES ovarian): > 100 µM | TGI (OVCAR-4 ovarian): > 100 µM | TGI (M14 melanoma): > 100 µM | TGI (K-562 leukemia): > 100 µM | TGI (KM12 colon): > 100 µM

c1ccc(-c2nc(N3CCNCC3)c3oc(-c4ccccc4)nc3n2)cc1
GI50 (SK-MEL-5 melanoma): 1.77 µM | TGI (SK-MEL-5 melanoma): 3.2 µM | GI50 (OVCAR-4 ovarian): 1.68 µM | TGI (OVCAR-4 ovarian): 3.19 µM | GI50 (K-562 leukemia): 0.428 µM | TGI (K-562 leukemia): 2.35 µM | GI50 (UO-31 renal): 1.49 µM | TGI (UO-31 renal): 2.85 µM | GI50 (HS 578T breast): 1.88 µM | TGI (HS 578T breast): 4.07 µM | GI50 (MALME-3M melanoma): 1.7 µM | TGI (MALME-3M melanoma): 3.17 µM | GI50 (SR leukemia): 0.259 µM | TGI (SR leukemia): 0.793 µM | GI50 (KM12 colon): 1.8 µM | TGI (KM12 colon): 3.35 µM

Nc1nc(Nc2ccccc2)c2[nH]cnc2n1
TGI (SK-MEL-5 melanoma): > 100 µM | TGI (NCI/ADR-RES ovarian): > 100 µM | TGI (OVCAR-4 ovarian): > 100 µM | TGI (M14 melanoma): > 100 µM | TGI (K-562 leukemia): > 100 µM | TGI (UO-31 renal): > 100 µM | TGI (MALME-3M melanoma): > 100 µM | TGI (KM12 colon): > 100 µM

COc1cc(C(C)O)c[n+](Cc2ccccc2)c1 (stereo unspecified)
TGI (SK-MEL-5 melanoma): > 100 µM | TGI (OVCAR-4 ovarian): > 100 µM | TGI (M14 melanoma): > 100 µM | TGI (K-562 leukemia): > 100 µM | TGI (UO-31 renal): > 100 µM | TGI (MALME-3M melanoma): > 100 µM | TGI (SR leukemia): > 100 µM | TGI (KM12 colon): > 100 µM

COC(=O)c1c(C)n([O-])c2cc(Cl)c(Cl)cc2[n+]1=O
TGI (SK-MEL-5 melanoma): 23.4 µM | TGI (NCI/ADR-RES ovarian): 49.5 µM | TGI (OVCAR-4 ovarian): 52.5 µM | TGI (M14 melanoma): 76.6 µM | TGI (K-562 leukemia): > 100 µM | TGI (UO-31 renal): 46.7 µM | TGI (HS 578T breast): 65.6 µM | TGI (MALME-3M melanoma): 31.1 µM | TGI (SR leukemia): > 100 µM | TGI (KM12 colon): 33.1 µM

OCCN(CCO)c1ncnc2nc[nH]c12
TGI (SK-MEL-5 melanoma): > 100 µM | TGI (NCI/ADR-RES ovarian): > 100 µM | TGI (OVCAR-4 ovarian): > 100 µM | TGI (M14 melanoma): > 100 µM | TGI (K-562 leukemia): > 100 µM | TGI (UO-31 renal): > 100 µM | TGI (HS 578T breast): > 100 µM | TGI (MALME-3M melanoma): > 100 µM | TGI (KM12 colon): > 100 µM

Cc1c(-c2ccccc2)[nH]c2cc(Cl)ccc2c1=O
TGI (SK-MEL-5 melanoma): > 100 µM | TGI (OVCAR-4 ovarian): 66.3 µM | TGI (M14 melanoma): > 100 µM | TGI (K-562 leukemia): > 100 µM | TGI (HS 578T breast): 65.6 µM | TGI (MALME-3M melanoma): > 100 µM | TGI (SR leukemia): > 100 µM | TGI (KM12 colon): 18.7 µM

CC(C)C(C(=O)O)N1C(=O)c2ccccc2C1=O (stereo unspecified)
TGI (SK-MEL-5 melanoma): > 100 µM | TGI (NCI/ADR-RES ovarian): > 100 µM | TGI (OVCAR-4 ovarian): > 100 µM | TGI (M14 melanoma): > 100 µM | TGI (K-562 leukemia): > 100 µM | TGI (HS 578T breast): > 100 µM | TGI (MALME-3M melanoma): > 100 µM | TGI (KM12 colon): > 100 µM

c1cnc2c(c1)ccc1cccnc12
TGI (SK-MEL-5 melanoma): > 34 µM | TGI (NCI/ADR-RES ovarian): > 74.7 µM | TGI (OVCAR-4 ovarian): > 88.4 µM | TGI (M14 melanoma): > 26.9 µM | TGI (K-562 leukemia): > 52.7 µM | TGI (UO-31 renal): > 49.5 µM | TGI (HS 578T breast): 97.8 µM | TGI (MALME-3M melanoma): > 35.3 µM | TGI (SR leukemia): 4.26 µM | TGI (KM12 colon): > 100 µM

CCOC(=O)c1c(C)n(-c2ccc(Cl)cc2)c2c1cc(O)c1[nH]c3c(c12)CCCC3
TGI (SK-MEL-5 melanoma): 49.4 µM | TGI (NCI/ADR-RES ovarian): > 100 µM | TGI (OVCAR-4 ovarian): > 100 µM | TGI (M14 melanoma): > 100 µM | TGI (K-562 leukemia): > 100 µM | TGI (UO-31 renal): > 100 µM | TGI (HS 578T breast): 72.4 µM | TGI (MALME-3M melanoma): > 100 µM | TGI (SR leukemia): 43.3 µM | TGI (KM12 colon): > 100 µM

O=C(/C=C/c1ccc(Oc2cc(C(=O)/C=C/c3ccc(O)cc3)c(O)cc2O)cc1)c1ccc(O)cc1O
TGI (SK-MEL-5 melanoma): 17.1 µM | TGI (NCI/ADR-RES ovarian): 22.7 µM | TGI (OVCAR-4 ovarian): 28.3 µM | TGI (M14 melanoma): 24.1 µM | TGI (K-562 leukemia): 16.6 µM | TGI (UO-31 renal): > 100 µM | TGI (HS 578T breast): > 100 µM | TGI (MALME-3M melanoma): 26.6 µM | TGI (SR leukemia): > 100 µM | TGI (KM12 colon): 6.64 µM

CN1C(c2ccccc2)CC(=O)C(N)C1c1ccccc1 (stereo unspecified)
TGI (SK-MEL-5 melanoma): 33.6 µM | TGI (OVCAR-4 ovarian): > 100 µM | TGI (M14 melanoma): > 69.2 µM | TGI (K-562 leukemia): > 67.6 µM | TGI (UO-31 renal): > 96.3 µM | TGI (MALME-3M melanoma): 50 µM | TGI (SR leukemia): > 60.2 µM | TGI (KM12 colon): 57.5 µM
